Results published in ChEMBL document CHEMBL1157539, “Thousands of chemical starting points for antimalarial lead identification” (Nature, 2010).

test system: Plasmodium falciparum; assay: GSK_TCMDC: Inhibition of Plasmodium falciparum 3D7 in whole erythrocytes, using parasite LDH activity as an index of growth.; type: functional, organism-based; conditions: Plasmodium falciparum, 3D7

First: CC(C)n1c(C(C)(C)C)cc2c3c(N)nc(N)nc3ccc21
Second: Cc1c(C(C)(C)C)ccc2nc(N)nc(N)c12
The XC50 of the first is 2.7-fold lower: 3.2 nM for the first, 8.73 nM for the second.

Compared with O=C(Nc1ccc(OC2CCN(Cc3ccc(F)cc3)CC2)c(Cl)c1)c1ccccc1, O=C(NC1CCN(Cc2ccccc2)CC1)c1ccc(-c2nc3cc(Cl)c(F)cc3[nH]2)cc1 is 3.2-fold lower in XC50: 794 nM for the first, 245 nM for the second.

O=C(Nc1ccc(C(F)(F)F)cc1)N[C@H]1CCN(CCCCCNC(=O)C2CC2c2ccc(Cl)c(Cl)c2)C1 (stereo partly specified) and CCCCCN1CCC(NS(=O)(=O)c2cccc(C(=O)Nc3ccc(C(F)(F)F)cc3)c2)C1 (stereo unspecified) are within 1.5-fold of each other in XC50: 1100 nM for the first, 798 nM for the second.

First: CCCCCCc1cc(OC)c(OC)cc1C(C)Nc1ccnc2cc(Cl)ccc12 (stereo unspecified)
Second: CCc1c(CCNCCCC(C)CCNCCc2ccc(OC)c(OC)c2CC)ccc(OC)c1OC (stereo unspecified)
The XC50 of the first is 2.3-fold lower: 488 nM for the first, 1110 nM for the second.

CC1CCC(C(C)C)C(OC(=O)CSc2nnc3c(n2)[nH]c2ccccc23)C1 (stereo unspecified) and C=C[C@H]1CN2CC[C@H]1C[C@H]2[C@H](OS(=O)(=O)O)c1ccnc2ccccc12 are within 1.5-fold of each other in XC50: 931 nM for the first, 624 nM for the second.

CC(CN(C)C)C(=O)Nc1ccc(-c2ccc(-c3nc4cc(F)ccc4[nH]3)cc2)cc1 (stereo unspecified) and Cn1ccnc1CNC(=O)c1ccc(-c2cccc(-c3nc4cc(F)ccc4[nH]3)c2)cc1 are within 1.5-fold of each other in XC50: 773 nM for the first, 980 nM for the second.

CC1CCCCC1N(C)C1CCN(CCCNC(=O)C=Cc2ccc(Cl)cc2Cl)CC1 (stereo unspecified) and CCN(CC)c1ccc(NC(=S)NC2CCN(CCCCCNC(=O)/C=C/c3ccc(Cl)c(Cl)c3)CC2)cc1 are within 1.5-fold of each other in XC50: 650 nM for the first, 883 nM for the second.

First: COc1cccc(Nc2nc(N)c3ccccc3n2)c1
Second: Cc1cc(NC(=O)Nc2ccc(C#N)cc2)c2ccccc2n1
The XC50 of the first is 1.6-fold higher: 934 nM for the first, 567 nM for the second.

N=C(NCCCc1ccccc1)c1cccc(C(=N)NCCCc2ccccc2)n1 and CC(C)CNCc1cccc(-c2ccccc2CN(C(=O)NCCc2ccccc2)C2CCN(Cc3ccccc3)CC2)c1 are within 1.5-fold of each other in XC50: 1380 nM for the first, 1170 nM for the second.

First: CCCCCCCCNCCCSCCCNCCCCCCCC
Second: CCN(CC)CCCN(CCCN(CC)CC)c1cc(C)nc(Nc2ccc3cc(Br)ccc3c2)n1
The XC50 of the first is 2.2-fold higher: 1230 nM for the first, 567 nM for the second.

COc1ccc(S(=O)(=O)N(c2cc(Br)cc3c2OCC3)S(=O)(=O)c2ccc(OC)c(N3CCN(C)CC3)c2)cc1N1CCN(C)CC1 and CC(C)Oc1cc2c(cc1NS(=O)(=O)c1ccc(-c3ccc(Cl)cc3)cc1)CCN(C)CC2 are within 1.5-fold of each other in XC50: 1170 nM for the first, 1040 nM for the second.

Going from CC(C)CNC(=S)N1CCCN(c2nc3ccc(Cl)cc3s2)CC1 to CCc1sc(N2CCN(C)CC2)nc1C(=O)Nc1ccc(F)cc1C(F)(F)F, the XC50 falls from 960 nM to 178 nM (5.4-fold).

O=C(/C=C/c1cccs1)NCC(NCCCNc1cc(=O)c2ccccc2[nH]1)c1cc(Br)cc(Br)c1 (stereo unspecified) and O=c1cc(NCCC(CNCc2ccoc2)NCc2cc(Br)cc(Br)c2)[nH]c2ccccc12 (stereo unspecified) are within 1.5-fold of each other in XC50: 888 nM for the first, 910 nM for the second.

CN1CCN(c2ccnc3ccc(NC(=O)c4ccc(Cl)c(Cl)c4)cc23)CC1 and CN1CCN(c2ccnc3ccc(NC(=O)Cc4ccc(OCc5ccccc5)cc4)cc23)CC1 are within 1.5-fold of each other in XC50: 710 nM for the first, 628 nM for the second.

Compared with CN(C)CCNc1cc(-c2ccc3ccccc3c2)nc2ccccc12, CCn1c(-c2ccccc2)cc2nnc3ccccc3c21 is 2.2-fold higher in XC50: 350 nM for the first, 769 nM for the second.

Going from O=[N+]([O-])c1nc(Br)n(Cc2ccc(Cl)cc2)n1 to Cc1nc(C)c(C2CCC(c3ccc(Cl)cc3)CC2)c(O)c1Cl (stereo unspecified), the XC50 falls from 360 nM to 51.8 nM (6.9-fold).

Going from CN1CCN(CC(=O)Nc2cccc(-c3ccc(-c4nc5cc(C(F)(F)F)ccc5[nH]4)s3)c2)CC1 to FC(F)(F)c1ccc2[nH]c(-c3cccc(-c4ccc(CNCCN5CCNCC5)cc4)c3)nc2c1, the XC50 rises from 309 nM to 862 nM (2.8-fold).

O=c1cc(NCCC(CNCc2ccc(Br)o2)NCc2cc(Br)cc(Br)c2)[nH]c2ccccc12 (stereo unspecified) and c1cc(CNCC2CCCO2)cc(-c2ccc(-c3nc4ccccc4[nH]3)s2)c1 (stereo unspecified) are within 1.5-fold of each other in XC50: 860 nM for the first, 1170 nM for the second.

Going from Cc1ccc(NC(=O)N2CCC(n3c(-c4ccccc4)nc4cccnc43)CC2)cc1F to O=C(Nc1cccc(-c2ccc(-c3nc4ccccc4[nH]3)cc2)c1)c1cnn2cccnc12, the XC50 rises from 534 nM to 1060 nM (2-fold).

Compared with N=C(/N=C(/NCCCCCCN/C(=N\C(=N)Nc1ccc(Cl)cc1)N1CCCCC1)N1CCCCC1)Nc1ccc(Cl)cc1, CN(C)CCOc1ccc(N2CCN(CCCCNC(=O)c3ccc(NC(=O)c4ccc(Cl)cc4)cc3)CC2)cc1 is 3.2-fold higher in XC50: 256 nM for the first, 826 nM for the second.

First: Cc1cccc(CC2CC(=O)N(c3ccc([N+](=O)[O-])cc3)C2=O)c1 (stereo unspecified)
Second: COc1ccc(C(=O)Nc2ccc(-c3ccc([N+](=O)[O-])cc3)cc2)cc1CCCN(C)C
The XC50 of the first is 4-fold lower: 200 nM for the first, 803 nM for the second.

O=C(/C=C/c1ccc(Cl)c(Cl)c1)N1CCC(CN2CCC(c3c[nH]c4cc(C(F)(F)F)ccc34)CC2)CC1 and CN(CCC1CCN(C(=O)/C=C/c2ccc(Cl)c(Cl)c2)CC1)C1CCC(c2c[nH]c3ccccc23)CC1 (stereo unspecified) are within 1.5-fold of each other in XC50: 796 nM for the first, 774 nM for the second.

FC(F)(F)c1ccc(-c2cncc(-c3ccc(C(F)(F)F)cc3)n2)cc1 and O=C(NCc1cccc(C(F)(F)F)c1)c1ccc(-c2nc3cc(F)c(F)cc3[nH]2)cc1 are within 1.5-fold of each other in XC50: 759 nM for the first, 776 nM for the second.

First: COC(=O)c1cccc(CNCc2cccc(-c3cccc(-c4nc5cccc(C)c5[nH]4)c3)c2)c1
Second: CN(CCN)Cc1cccc(-c2cccc(-c3nc4cc(F)ccc4[nH]3)c2)c1
The XC50 of the first is 4.2-fold lower: 186 nM for the first, 785 nM for the second.

Compared with COC(=O)c1ccc(CC(C)NCC(O)c2ccc(Cl)c(Cl)c2)cc1 (stereo unspecified), COc1ccc(C(O)CNC(C)CCc2ccccc2)cc1C(F)(F)F (stereo unspecified) is 14-fold lower in XC50: 1000 nM for the first, 70.4 nM for the second.

Going from Cc1ccccc1C1CCN(C2CCC(NC(=O)c3ccc(-c4ccccc4)s3)CC2)CC1 (stereo unspecified) to Cc1ccccc1C1CCN(C2CCC(NC(=O)/C=C/c3ccc(F)cc3)CC2)CC1 (stereo unspecified), the XC50 rises from 661 nM to 1340 nM (2-fold).

Cc1nc(C)c(-c2ccc(Oc3ccc(Cl)cc3)cc2)c(O)c1I and Cc1ccc(Oc2ccc(CNc3nc(Nc4cccc(F)c4)nc(Nc4cccc(F)c4)n3)cc2)cc1 are within 1.5-fold of each other in XC50: 957 nM for the first, 1210 nM for the second.

First: CCN(CCCN1CCCCC1)c1cc(C)nc(Nc2ccc(Cl)c(C(F)(F)F)c2)n1
Second: Cc1cc(N2CCCC2)nc(Nc2ccc(NC(=O)Cc3ccccc3)cc2)n1
The XC50 of the first is 3.5-fold lower: 173 nM for the first, 606 nM for the second.

First: N=C(NCc1ccccc1)Nc1nc(-c2ccc(OCCCn3ccnc3)cc2)cs1
Second: COCCN(C)c1ccc(C(=O)Nc2ccccc2)cc1NS(=O)(=O)Cc1ccccc1
The XC50 of the first is 2.3-fold lower: 253 nM for the first, 571 nM for the second.

COc1ccc(C=NN=c2cc(C)[nH]c3ccc(C)cc23)c2ccccc12 and COc1ccc(CNc2ncnc3c2[nH]c2ccc(F)cc23)cc1 are within 1.5-fold of each other in XC50: 864 nM for the first, 980 nM for the second.

CCC(=O)Nc1nnc(Cc2ccc(OC)c(OC)c2)s1 and COc1ccc(Nc2ncc3c(-c4cccc(NC(=O)Cc5cccnc5)c4)c[nH]c3n2)cc1OC are within 1.5-fold of each other in XC50: 910 nM for the first, 718 nM for the second.

First: CCOC(=O)N1CCN(C(=O)Nc2ccc(Cl)cc2)CC1
Second: COC(=O)c1cc(NC(=O)Nc2ccc(Cn3ncc(N4CCCNCC4)c(Cl)c3=O)cc2)cc(C(=O)OC)c1
The XC50 of the first is 2.1-fold higher: 1520 nM for the first, 708 nM for the second.

Going from CC1(C)N=C(N)N=C(N)N1c1ccc(I)cc1 to CN(C)CCCc1cc(NC(=O)Nc2cccc(Cl)c2Cl)ccc1I, the XC50 rises from 44.4 nM to 539 nM (12-fold).

Going from O=C(/C=C/c1ccccc1O)N1CCC(CCN2CCC(c3c[nH]c4ccccc34)CC2)CC1 to O=C(/C=C/c1ccc(Cl)c(Cl)c1)N1CCC(CN2CCC(c3c(-c4ccc(F)cc4)[nH]c4ccccc34)CC2)CC1, the XC50 falls from 1340 nM to 175 nM (7.7-fold).

O=C(NC1CCC(CN2CCC(c3c[nH]c4ccccc34)CC2)CC1)c1csc(-c2ccc(C(F)(F)F)cc2Cl)n1 (stereo unspecified) and CN(CC1CCC(NC(=O)/C=C/c2ccc(Cl)c(Cl)c2)CC1)C1CCC(c2c[nH]c3ccccc23)CC1 (stereo unspecified) are within 1.5-fold of each other in XC50: 827 nM for the first, 837 nM for the second.

N#Cc1cccc(C(=O)Nc2cccc(-c3ccc(C(=O)Nc4cccnc4)cc3)c2)c1 and O=C(Nc1cccnc1)c1cc(-c2cc(Cl)ccc2O)n[nH]1 are within 1.5-fold of each other in XC50: 693 nM for the first, 719 nM for the second.

Oc1ccc(CCNc2nc(NCc3ccc4cc(Cl)ccc4c3)nc(N3CCNCC3)n2)cc1 and O=C(Nc1ccc(Cl)c(Cl)c1)C1CCC(=O)N1[C@@H](Cc1ccccc1)C(=O)NCCc1ccc(Cl)cc1 (stereo partly specified) are within 1.5-fold of each other in XC50: 1020 nM for the first, 1100 nM for the second.

CC(C)C[C@H](NC(=O)c1cc2ccccc2s1)C(=O)N[C@H]1CCN(Cc2ccc(OC3CCN(C)C3)c(Cl)c2)C1 (stereo partly specified) and COc1cc(C(=O)N2CCOC(CCN3CCC[C@H]3C(=O)Nc3ccccc3)(c3ccc(Cl)c(Cl)c3)C2)cc(OC)c1OC (stereo partly specified) are within 1.5-fold of each other in XC50: 782 nM for the first, 733 nM for the second.

CCNc1cc(C(=O)N[C@@H](Cc2ccccc2)[C@H](O)CNC(C)(C)c2cccc(OC)c2)cc(N2CCCC2=O)c1 and COc1cc(NC(=O)/C=C/c2ccccc2Cl)cc(OCCN2CCC(O)(c3ccccc3)CC2)c1 are within 1.5-fold of each other in XC50: 143 nM for the first, 174 nM for the second.

First: CC(C)C[C@H](NC(=O)c1cc(-c2ccc(C(C)(C)C)cc2)no1)C(=O)O.CC(C)C[C@H](NC(=O)c1conc1-c1ccc(C(C)(C)C)cc1)C(=O)O
Second: O=C(NCCCCN1CCC(c2ccc3c(c2OCC2COCO2)CCCC3)CC1)c1ccc(-c2ccc(C(F)(F)F)cc2)cc1 (stereo unspecified)
The XC50 of the first is 4.7-fold lower: 186 nM for the first, 868 nM for the second.

First: COc1cc2nc(NCc3ccc(S(N)(=O)=O)cc3)nc(Nc3ccc(Oc4ccccc4)cc3)c2cc1OC
Second: CN1CCN(S(=O)(=O)c2ccc3nccc(Nc4ccc(Oc5ccccc5)cc4)c3c2)CC1
The XC50 of the first is 1.8-fold lower: 445 nM for the first, 818 nM for the second.

First: COc1cc(C(=O)NCc2nn(CCN3CCC(N4CCCC4)CC3)cc2-c2ccc(Cl)c(Cl)c2)cc(OC)c1OC
Second: Cc1ccc(-n2cc(CNCC3CCN(CCO)CC3)c(-c3ccc(F)cc3)n2)cc1
The XC50 of the first is 2.6-fold lower: 774 nM for the first, 2000 nM for the second.

Compared with Cc1ccccc1C1CCN(C2CCC(NC(=O)/C=C/c3cc(F)cc(F)c3)CC2)CC1 (stereo unspecified), O=C(Nc1ccccc1)N(Cc1ccc(-c2cccc(CNC3CCCC3)c2)cc1)C1CCN(Cc2ccccc2)CC1 is 2-fold lower in XC50: 833 nM for the first, 427 nM for the second.

Compared with CCCCCN1CCCC(NS(=O)(=O)c2ccc(C(=O)Nc3ccc(C(F)(F)F)cc3)cc2)C1 (stereo unspecified), Cc1cccc(Cl)c1S(=O)(=O)N1CCCCC(c2ccc(C(F)(F)F)cc2)=N1 is 7.5-fold lower in XC50: 1630 nM for the first, 216 nM for the second.

Going from Fc1ccccc1CNc1ncc(-c2ccsc2)c(-c2nccs2)n1 to CN(C)c1ccc(-c2cscc2C(=O)NC2CCCN(Cc3cccnc3)C2)cc1 (stereo unspecified), the XC50 rises from 54 nM to 859 nM (16-fold).

N=C(N)c1ccc(NC(=O)Cc2nc3cc(C(=N)N)ccc3[nH]2)cc1 and CN(CCN)Cc1ccc(-c2ccc(-c3nc4cc(F)ccc4[nH]3)s2)cc1 are within 1.5-fold of each other in XC50: 1380 nM for the first, 1070 nM for the second.

Compared with CCOC(=O)c1cncc(/C=C/c2cc(C)cnc2N)c1, Nc1ncc(-c2cn[nH]c2)cc1-c1nc2ccc(F)cc2[nH]1 is 1.7-fold higher in XC50: 424 nM for the first, 729 nM for the second.

Cc1cc(NCCC(=O)NCCOc2ccccc2)nc(NCCOc2ccccc2)n1 and CCCCC1(NC(=O)[C@H](CC(C)C)Nc2ccc(C#N)c3ccccc23)CCCCC1 are within 1.5-fold of each other in XC50: 867 nM for the first, 799 nM for the second.
